What was measured:
[1] = tested on: HCT116 cells; assay: Clonogenic survival of HCT116 cells with Dox-inducible dCas9-Fok1-GFP and gRNA pairs; format: cell-based; details: Nu7441 200 nM, 12 days, no gRNA
Protocol: Cells were plated and treated with different concentrations of Dox for 12 days. Cells were then fixed and stained, colonies were counted, and colony numbers were reported as a percentage of control cells not treated with Dox. […] Cells were plated and treated with different concentrations of Dox for 12 days. Cells were then fixed and stained and colonies counted and expressed as a percentage of control cells not treated with Dox. In FIG. 5A and FIG. 5B, the gRNA pairs target two CRJs on chromosome 3 (3ab and 3cd), one on chromosome 5 (5ab), and one on the X chromosome (xab).
During the development of embodiments of the technology provided herein, experiments were conducted to evaluate use of a dCas9-Fok1 fusion protein and to produce a dCas9-Fok1 fusion protein further comprising a GFP domain to provide a tool to detect expression in cells. Furthermore, the dCas9-Fok1-GFP fusion and the gRNA genes were placed under the regulation of a tet-inducible promoter for performing experiments to establish the cells in culture or as xenografts and then induce expression by addition of doxycycline (Dox). […]
HCT116 cells with stable expression of dCas9-Fok1-GFP, 3ab3cd/Fok1-dcas9-GFP, 5ab3cd/Fok1-GFP, and 3abxab/dCas9-GFP were maintained in DMEM containing 10% FBS. […] Clonogenic survival colonies with 50 cells or more were counted.

[2] = tested on: UMUC-3 bladder cancer cells; assay: Clonogenic survival assay in UMUC-3 bladder cancer cells; format: cell-based, human; details: doxycycline induction plus Nu7441
Source text: FIG. 6C is a series of bar plots showing data collected from an […] clonogenic survival assay in the UMUC-3 bladder cells shown schematically in FIG. 6B. […] Further, treatments with the DNA-PK inhibitor Nu7441 improved the toxicity of the CRJ-targeting gRNAs (bottom row). The data are expressed as the mean and standard deviation of three biological replicates. Numbers (3a & X; 7 & 2; 7 & 4; 19 & 2; and 19 & 4) indicate the combinations of gRNA used for the experiment.
First, CRJs were identified in bladder cancer cells (see, e.g., FIG. 6A). Using sequence information from the CRJs identified in bladder cancer cells, gRNA were designed and UMUC-3 (ATCC Accession CRL-1749) cell lines were produced comprising doxycycline-inducible expression of Fok1-dCas9 and the CRJ-targeting gRNAs. gRNA sequences are provided in Table 2.
Six UMUC-3 bladder cancer sublines were generated—Two control cell lines were produced, one expressing no gRNAs and one expressing 2 pairs of non-targeting gRNAs; four experimental cell lines were produced expressing Fok1-dCas9-GFP and two pairs of CRJ-targeting gRNAs under the regulation of doxycycline (see, e.g., FIG. 6B). CRJ-specific DSBs were induced in the cells (e.g., using doxycycline) and toxicity was monitored to determine if interfering with DSB repair leads to increased killing of bladder cancer cells (see, e.g., FIG. 6C, top row). […]

[3] = tested on: HCT116 xenografts; assay: HCT116 xenograft tumor growth in mice; format: in vivo; details: water with Dox and Nu7441
Protocol: In these experiments, HCT116 cells are injected into mice and each group is split into three treatment groups that receive ether regular water, water with Dox, or water with Dox and Nu7441.
Experiments are conducted in which three of the HCT116 cell lines with dox-inducible expression of dCas9-Fok1-GFP with and without CRJ-targeting gRNAs are used to form xenografts in the flank of mice. In these experiments, one million HCT116 cells in a 100 μl Matrigel suspension are injected s.c. into the hind leg of the mice (a total of 54 NOD/SCID or athymic BALB/C, 10-12 weeks old). When tumors reach sizes of 50-150 mm^3, each group is split into three groups (see, e.g., FIG. 2) where they receive ether regular water, water with Dox, or water with Dox and Nu7441. Tumor measurements are taken daily and mouse weights are recorded 3 times weekly. As the control tumors reach the predetermined tumor size limit, animals are euthanized. At this time, the tumors are removed, weighed, and documented (e.g., using digital imaging) and used for downstream analyses. Downstream analyses include measuring expression of dCas9-Fok1-GFP (green fluorescence) and γH2AX ChIP-PCR with primers for sequences near the CRJ and sequences far away as a control.

[4] = tested on: UMUC-3 orthotopic tumors; assay: UMUC-3 orthotopic xenograft tumor growth in NOD-scid mice; format: in vivo; details: UMUC-3 in NODscid mice; doxycycline plus Nu7441
Protocol: FIG. 7 is a schematic drawing showing an in vivo experiment comparing tumor growth between UMUC-3 cells expressing non-targeting gRNAs (left) and UMUC-3 cells expressing CRJ-targeting gRNAs (right). These cell lines are engineered to express luciferase for bioluminescent monitoring. Each mouse group represents 10 NODscid mice. […] Accordingly, further experiments are conducted to grow these cell lines as orthotopic xenografts in NOD-scid mice and to monitor tumor growth (e.g., using bioluminescence) in vivo as the CRISPR reagents are induced by doxycycline (e.g., provided in food and/or water). UMUC-3 cells are grown as orthotopic tumors in NOD-scid mice, animals are given doxycycline to induce Fok1-dCas9 and the two pairs of gRNAs in the cancer cells, and the effects on tumor growth are assessed by bioluminescence. […] The other cell line expresses CRJ-targeting gRNAs following doxycycline exposure. Experiments are conducted with or without a DNA-PK inhibitor (e.g., Nu7441) and with and without doxycycline in the drinking water and/or in the food. 10 animals are used per group with 8 groups for a total of 80 animals (FIG. 7).

Compound: O=c1cc(N2CCOCC2)oc2c(-c3cccc4c3sc3ccccc34)cccc12 [Nu7441]
- effect of Nu7441 on clonogenicity of cells expressing dCas9-Fok1-GFP alone [1]: did not affect clonogenicity
- toxicity / survival with DNA-PK inhibitor Nu7441 [2]: augmented this effect
- suppression of tumor growth with Nu7441 [3]: Suppression of tumor growth is augmented
- tumor growth inhibition with Nu7441 [4]: augments tumor growth inhibition

Source: patent US20220220472A1, “TARGETED THERAPY” (The Regents of the University of Michigan, priority 2019, published 2022)
